Data on three molecules can be found in US20260284138A1, “METHODS OF MODULATING THE EPITHELIAL-MESENCHYMAL TRANSITION” (RS Oncology, LLC, priority 2023, published 2026).

One series has as its system PRX3. The series can be described thus: PRX3 crosslinking by reducing SDS-PAGE and western blot. It counts as cell-based, human. From the text: PRX3 is the primary mitochondrial peroxidase required for H2O2 clearance from the mitochondria induced by metabolic, tumorigenic, and drug treatment inputs. During the metabolism of H2O2, PRX3 forms an intramolecular disulfide bond that orients the second active site for TS-dependent covalent crosslinking, inactivating the protein leading to increased oxidative stress and tumor cell death.
(§1) Erastin potentiates PRX3 crosslinking and ROS generation by TS. FIG. 10A show Western blot from HM cells treated with TS (1 μM), erastin (ER, 2.5 μM) or TS+ER for 24 hours. Samples were run under reducing conditions by SDS-PAGE. FIG. 10B show quantification of PRX3 dimer (TS-crosslink) to PRX3 monomer (unmodified PRX3) from protein western blots as in A (n=2 biological replicates). FIG. 10C show ROS levels in cells treated with TS, ER, or TS+ER for 24 hours (n=2 biological replicates, 3 technical replicates). FIG. 10D show protein western blot of cells cultured in media+/−cystine and treated with TS or ER. PRX3 crosslinking by TS is increased in cells cultured in cystine free (−) media.

In another series the test system is HM-TSR cells. Nature of the series: Cell viability assay of TS-resistant HM-TSR cells. It counts as cell-based, human. As to conditions: TS+ER 48 hours. The method, then:
TS-resistant cells over-express SLC7A11 and are re-sensitized to TS by Erastin (ER). HM cells were dosed with TS by repetitive drug treatment with a short 24-48 hr recovery period. […] Development of a drug-tolerant cell line with tolerance at […] after 8 months. […] The shift in sensitivity of the HM-TSR-TS line to the HM-TSR-TS/ER line.

In series [1] the test system is HM cells. Nature of the series: ROS levels in treated cells. The class given is cell-based, human. As to conditions: ER or TS+ER, 24 hours. The method, then:
as §1

Another series deals with mitochondrial PRX3. The series can be described thus: Preclinical PRX3 inhibition in transformed cells. The class given is cell-based. From the text:
(§2) RSO-021 is a PRX3 inhibitor that inactivates PRX3 through direct covalent adduction of active site cysteine residues, in turn, inducing oxidative stress to levels incompatible with tumor cell survival.

Series [2] has as its system cytokine levels in pleural effusion. The series can be described thus: Phase 1/2 clinical trial: cytokine levels in pleural effusion by ELISA. Conditions: pleural effusion pre- and post-treatment, weekly intrapleural administration. It counts as in vivo, human. From the text: FIGS. 7A-7B show administration of RSO-021 and effect on cytokine levels. […] Prior to each dose patients will have pleural effusion drained to dryness per standard of care. After each administration, the IPC is secured until next RSO-021 dosing time point. […] Absolute values as determined following ELISA are shown from 7 patients enrolled on the trial.
RSO-021 is a PRX3 inhibitor that was investigated in a first-in-human phase ½ clinical trial, recruiting patients with malignant pleural effusion (MPE) arising from mesothelioma or other solid tumors. Mesothelioma cells rely on buffering of mitochondrial oxidative stress through the expression and activity of mitochondrial PRX3, which is covalently inactivated by RSO-021. Inactivation of PRX3 by RSO-021 leads to increased oxidative stress and tumor cell death. RSO-021 may be administered weekly via an intrapleural catheter. Cytokine levels in pleural effusion drainages were measured by ELISA assays. Tumor explants were grown following surgical resection of mesothelioma tumors. RNA sequencing of MM cell lines was conducted. […] RNA sequencing of cells derived from pre-and post-treated MPE aims to identify RSO-021 induced transcriptional changes and their association with clinical activity. […]

Series [3] is described as follows: Preclinical animal studies, tolerability. The class given is in vivo.
Source text: as §2

In series [4] the test system is HM cells. The series can be described thus: Cell viability assay of HM cells. It counts as cell-based, human. As to the method: (§3) FIG. 8A show BAP1 protein expression in immortalized mesothelial (LP9), pleural Meso (HM, MI), and peritoneal Meso (Pet-Gar) cell lines. […] FIG. 8B show EC50 values for TS in normal and MM cell lines (*p<0.05, **p<0.01, ***p<0.001, ****p <0.0001, n=4 biological replicates) FIG. 8C show protein western blots of BAP1 and GAPDH in HM scramble control (SCR) and BAP1 siRNA expressing (siBAP1) cells. FIG. 8D show cell viability curves of cells treated with TS 48 hours (n=3).
ZSS>10 indicates synergy between the two compounds.
TS synergy with ER is independent of ferrostatin sensitive MOA.
Knockdown of SLC7A11 potentiates TS activity. […] PRX3 crosslinking is increased in the SLC7A11 KD samples.

The subject of series [5] is patient derived explants (PDEs). The series can be described thus: Gene set enrichment analysis of patient derived explants treated with TS. Conditions: PDEs treated with 10 μM of TS vs untreated. It counts as cell-based, human. From the text: Mesothelioma, a lethal cancer associated with asbestos exposure, lacks effective drug therapy particularly in the relapsed treatment setting. Epithelial-to-mesenchymal transition (EMT) confers an aggressive sarcomatoid phenotype capable of invasion, metastasis, and drug resistance. Pharmacological targeting of EMT could favorably alter the progression and treatment of mesothelioma. Mesothelioma cells rely on buffering of mitochondrial oxidative stress through the expression and activity of mitochondrial peroxiredoxin 3 (PRX3), which is covalently inactivated by the inhibitor RSO-021 (Thiostrepton, TS). To better understand the pharmacodynamics of TS, transcriptomic profiles of drug sensitive and resistant biphasic mesothelioma cell lines were generated. […] Lastly, downregulation of EMT by TS was determined in a cohort of TS treated mesothelioma surgical explants. In summary, PRX3 is a clinically actionable drug target, inhibition of which correlates with EMT modulation.

The test system of another series is BAP1. The series can be described thus: BAP1 protein expression by western blot. Conditions: TS 4 μM; LP9, HM, MI, Pet-Gar cell lines. The class given is cell-based, human. The method, then:
as §3

Series [6] relates to human biphasic mesothelioma cell lines. The series can be described thus: RNA-Seq / RT-qPCR gene expression in mesothelioma cells treated with TS. The class given is cell-based. As to the method: Described herein are methods to evaluate changes in gene expression in malignant mesothelioma cells (H-meso cell line) treated with thiostrepton (HM-TS) for 16 hrs and compare to HM-TSR (TS_tolerant cells) grown in the presence of […] TS for several weeks. Biological triplicates were generated, RNA extracted, and RNA integrity evaluated. Cell lysates and cDNA were evaluated for known gene changes by RT-qPCR prior to library builds. Libraries were generated using the SMARTer® Stranded RNA-Seq Kit HT from Takara, pooled and analyzed on the Illumina HiSeq 1500 using a rapid run dual lane SE sequencing flow cell. Each library yielded an average of […] mapped reads.
Spatial multiregional sampling of adjacent, intra-tumour E (7) vs S (12) regions from 7 patients with bi-phasic mesothelioma was followed by whole exome, transcriptome and 100-plex immunofluorescence analysis (employing cytokeratin-based cell segmentation). Machine learning (random forests) was employed to infer E to S evolutionary trajectories at the genomic, transcriptomic and protein levels. Biphasic human mesothelioma cells were treated with the PRX3 inhibitor RSO-021 (thiostrepton) and gene-expression changes were evaluated by RT-qPCR.
E and S transition requires Mitochondrial peroxiredoxin 3 (PRX3). […] EMT, hypoxia and glycolysis associated transcription were reduced in RSO-021 treated cells (FIG. 4B). […] Further, MAPK13 (p38) expression is increased in TS treated cells (FIG. 4F). p38 negatively regulates TEAD signaling while TEAD promotes EMT and tumorigenesis. […] TGFb is a master regulator of EMT. VGLL4 inhibits TEAD transcription (FIG. 4H). […] Mesothelin (MSLN) is exclusively expressed in epithelioid MM (FIG. 5A). TS resistant cells increase MSLN expression, indicating a switch to an epithelioid phenotype. EMT is a primary driver in the Epithelioid to sarcomatoid transition (FIG. 5B).

For `CCOc1ccccc1-n1c(C(C)N2CCN(C(=O)COc3ccc(Cl)cc3)CC2)nc2ccccc2c1=O` (stereo not shown) [Erastin, erastin], the “effect on PRX3 crosslinking by TS” value in the series with PRX3 (HM cells, TS 1 μM, erastin 2.5 μM, 24 hours) is listed as “potentiates”. In addition, the “sensitivity of TS-resistant cells to TS” value in the series on HM-TSR cells is given as “re-sensitized”. Moreover, the “effect on ROS generation by TS” value in the series on HM cells [1] was “potentiates”.
Turning to `C=C(NC(=O)C(=C)NC(=O)c1csc(C2=N[C@@H]3c4csc(n4)[C@H]4NC(=O)c5csc(n5)[C@H]([C@](C)(O)[C@@H](C)O)NC(=O)[C@H]5CSC(=N5)/C(=C/C)NC(=O)[C@H]([C@@H](C)O)NC(=O)c5csc(n5)[C@]3(CC2)NC(=O)[C@H](C)NC(=O)C(=C)NC(=O)[C@H](C)NC(=O)[C@H]([C@@H](C)CC)N[C@@H]2C=Cc3c([C@H](C)O)cc(nc3[C@H]2O)C(=O)O[C@@H]4C)n1)C(N)=O` [TS, Thiostrepton], the “selectivity of mitochondrial PRX3 inhibition” value in the series on mitochondrial PRX3 is reported as “selectively inhibits”. In series [2], the “cytokine levels including Resistin, IL-8 and IL-6” value is “significant changes”. Also, the tolerability result in [3] is on record as “well-tolerated”. In the series with HM cells [4] (BAP1 siRNA vs scramble, TS 48 hours), the “TS activity in relation to BAP1 expression” value is given as “independent of BAP1 expression”. Moreover, the “TS activity on knockdown of SLC7A11” value with HM cells [4] (HM cells, SLC7A11 siRNA) is “potentiates”. For the same molecule, the “epithelial mesenchymal transition genes” value in series [5] is “downregulated”. The BAP1 protein expression result with BAP1 is recorded as “does not alter”. Also, the PRX3 crosslinking result in the series with PRX3 (SLC7A11 KD samples, FIG. 12C) is recorded as “increased”. Besides, the “PRX3 crosslinking by TS” value with PRX3 (cells cultured in cystine free (−) media) is listed as “increased”. Also, in the series on PRX3 (reducing SDS-PAGE and western blotting), the “modified PRX3 (PRX3-TS)” value was “dose-dependent irreversible increase”. Besides, the “EMT, hypoxia and glycolysis associated transcription” value in series [6] (GSEA, treated vs control cells, FIG. 4B) is “reduced”. For the same molecule, the VISTA expression result in series [6] (RSO-021 treated cells, FIG. 4D) is recorded as “upregulated”. For the same molecule, the “MAPK13 (p38) expression” value in series [6] (TS treated cells, FIG. 4F) is reported as “increased”. Moreover, the “TGFb1 and TGFb2 expression” value in series [6] (TS treated cells, FIG. 4G) is “downregulated”. Further, in [6] (TS treatment, FIG. 4I), the “Additional TEAD targets EGFR, DKK1, WNT5B, SLC7A5, and WNT5A” value is “downregulated”. Further, in [6] (biphasic mesothelioma cells, FIG. 4A), the “TEAD target genes, TGF-β and EMT associated genes including CDH2” value is recorded as “downregulated”. Moreover, the “mesothelin (MSLN) expression” value in series [6] (biphasic mesothelioma cells, FIG. 4A/4D) was “upregulated”. Besides, the “ROS response and apoptosis signaling” value in [6] (differential transcriptomic analysis) was “upregulation”. The “expression of mesothelioma specific EMT genes Col5A, mesothelin, and VISTA” value in series [6] (transcriptomic profiles) is recorded as “altered expression”.
For the molecule `CCOC(=O)c1ccc(NC2CCCCC2)c(N)c1` [Fer-1, Ferrostatin], the “effect on TS/ER cytotoxic synergy” value in the series on HM cells [4] (48 hours) was “does not block”. Further, the “effect on ER cytotoxicity” value with HM cells [4] (48 hours, FIG. 11A) is “blocks”. In the series on PRX3 (cells treated +/- Fer-1, FIG. 11C), the “effect on PRX3 crosslinking by TS or TS+ER” value is on record as “does not alter”.
